The values that follow come from patent US10385103B2, “Cell-permeable (ICP)-SOCS3 recombinant protein and uses thereof” (CELLIVERY THERAPEUTICS, INC., priority 2014, dated 2019).

The test system of the test is RAW 264.7 cells. In words: Quantitative cell-permeability of FITC-labeled aMTD- or rPeptide-fused CRA recombinant proteins (flow cytometry). The format is cell-based. The method in brief: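 Uptake of fluorescently labeled, peptide-fused cargo proteins was quantified by flow cytometry (Guava, Millipore) and analyzed in FlowJo software. RAW 264.7 cells received 10 μM FITC-labeled protein for 1 hour at 37° C., were rinsed three times with cold PBS, and were trypsinized with 0.25% tripsin/EDTA for 20 minutes at 37° C. to remove bound protein before measurement. Permeability was expressed relative to reference proteins.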
In general terms: Flow cytometry measures light scatter and fluorescence of single cells or particles in a stream.

The mark [1] stands for this setting: cell-permeability of aMTD-fused CRA recombinant protein relative to negative control (A: rP38).
Setting [2] is: cell-permeability of aMTD-fused CRA recombinant protein relative to reference CPP (B: MTM12).
The mark [3] stands for this setting: cell-permeability of aMTD-fused CRA recombinant protein relative to reference CPP (C: MTD85).
Where [4] appears, read: cell-permeability relative to negative control rP38 (A type), aMTD-fused CRA recombinant protein, 10 μM FITC-labeled, 1 hour, 37° C., RAW 264.7 cells.
Setting [5] is: cell-permeability relative to reference CPP MTD85 (C type), aMTD-fused CRA recombinant protein, 10 μM FITC-labeled, 1 hour, 37° C., RAW 264.7 cells.
The mark [6] stands for this setting: cell-permeability relative to reference CPP MTM12 (B type), aMTD-fused CRA recombinant protein, 10 μM FITC-labeled, 1 hour, 37° C., RAW 264.7 cells.
Setting [7] is: relative cell-permeability of aMTD vs reference A (not defined).

As for “847 (LVAIVVLPAVAP; Amino acid Sequence of aMTD847) [compound 847]”, under setting [1], the “Relative Ratio (Fold) A” value is 50.2 Fold. For the same substance, the “Relative Ratio (Fold) B” value under setting [2] is recorded as 33.4 Fold. In addition, the “Relative Ratio (Fold) C” value under setting [3] turned out to be 16.9 Fold.
As for “848 (AVAIVVLPAVAP; Amino acid Sequence of aMTD848) [compound 848]”, the “Relative Ratio (Fold) A” value under setting [1] stood at 10.0 Fold. Further, the “Relative Ratio (Fold) B” value under setting [2] came out at 6.7 Fold. Under setting [3], the “Relative Ratio (Fold) C” value is 3.4 Fold.
With “849 (AVILLAPLIAAP; Amino acid Sequence of aMTD849) [compound 849]”, under setting [1], the “Relative Ratio (Fold) A” value turned out to be 8.3 Fold. Besides, the “Relative Ratio (Fold) B” value under setting [2] is given as 4.8 Fold. Also, under setting [3], the “Relative Ratio (Fold) C” value is 2.9 Fold.
On to “850 (LVIALAAPVALP; Amino acid Sequence of aMTD850) [compound 850]”, for which, under setting [1], the “Relative Ratio (Fold) A” value is 8.8 Fold. Besides, the “Relative Ratio (Fold) B” value under setting [2] was 5.9 Fold. Also, the “Relative Ratio (Fold) C” value under setting [3] came to 3.0 Fold.
With “851 (VLAVVLPAVALP; Amino acid Sequence of aMTD851) [compound 851]”, under setting [1], the “Relative Ratio (Fold) A” value is on record as 96.6 Fold. Further, the “Relative Ratio (Fold) B” value under setting [2] is reported as 64.7 Fold. Moreover, the “Relative Ratio (Fold) C” value under setting [3] worked out at 32.7 Fold.
With “852 (VLAVAAPAVLLP; Amino acid Sequence of aMTD852) [compound 852]”, the “Relative Ratio (Fold) A” value under setting [1] was 84.6 Fold. Moreover, the “Relative Ratio (Fold) B” value under setting [2] is given as 56.6 Fold. In addition, the “Relative Ratio (Fold) C” value under setting [3] is on record as 28.6 Fold.
Take “863 (AAVVLLPIIAAP; Amino acid Sequence of aMTD863) [compound 863]”: the “Relative Ratio (Fold) A” value under setting [1] is reported as 13.8 Fold. Moreover, under setting [2], the “Relative Ratio (Fold) B” value was 9.3 Fold. Under setting [3], the “Relative Ratio (Fold) C” value came out at 4.7 Fold.
Regarding “865 (AVLVIAVPAIAP; Amino acid Sequence of aMTD865) [compound 865]”, the “Relative Ratio (Fold) A” value under setting [1] is on record as 11.3 Fold. For the same substance, under setting [2], the “Relative Ratio (Fold) B” value amounted to 7.5 Fold. Also, the “Relative Ratio (Fold) C” value under setting [3] worked out at 3.8 Fold.
The matching figures for “867 (ALLVVIAPLAAP; Amino acid Sequence of aMTD867) [compound 867]”: 13.2 Fold, 8.8 Fold and 4.4 Fold.
Take “868 (VLVAAILPAAIP; Amino acid Sequence of aMTD868) [compound 868]”: the “Relative Ratio (Fold) A” value under setting [1] worked out at 14.9 Fold. Under setting [2], the “Relative Ratio (Fold) B” value was found to be 10.0 Fold. Moreover, the “Relative Ratio (Fold) C” value under setting [3] is listed as 5.0 Fold.
“870 (VLVAAVLPIAAP; Amino acid Sequence of aMTD870) [compound 870]”: the “Relative Ratio (Fold) A” value under setting [1] amounted to 16.6 Fold. Under setting [2], the “Relative Ratio (Fold) B” value is 11.1 Fold. For the same substance, under setting [3], the “Relative Ratio (Fold) C” value was 5.6 Fold.
As for “872 (VLAAAVLPLVVP; Amino acid Sequence of aMTD872) [compound 872]”, the “Relative Ratio (Fold) A” value under setting [4] is reported as 7.3 Fold. In addition, the “Relative Ratio (Fold) C” value under setting [5] was 2.5 Fold. For the same substance, the “Relative Ratio (Fold) B” value under setting [6] is recorded as 4.9 Fold.
Take “875 (AIAIVVPAVAVP; Amino acid Sequence of aMTD875) [compound 875]”: under setting [1], the “Relative Ratio (Fold) A” value is 13.8 Fold. In addition, the “Relative Ratio (Fold) B” value under setting [2] is recorded as 9.2 Fold. Besides, under setting [3], the “Relative Ratio (Fold) C” value came to 4.7 Fold.
With “878 (IVALVAPAAVVP; Amino acid Sequence of aMTD878) [compound 878]”, the “Relative Ratio (Fold) A” value under setting [1] amounted to 10.3 Fold. In addition, under setting [2], the “Relative Ratio (Fold) B” value amounted to 6.9 Fold. Further, the “Relative Ratio (Fold) C” value under setting [3] is 3.5 Fold.
On to “881 (AALIVVPAVAVP; Amino acid Sequence of aMTD881) [compound 881]”, for which, under setting [1], the “Relative Ratio (Fold) A” value was determined as 12.7 Fold. For the same substance, under setting [2], the “Relative Ratio (Fold) B” value amounted to 8.5 Fold. For the same substance, under setting [3], the “Relative Ratio (Fold) C” value came out at 4.3 Fold.
Take “882 (AIALVVPAVAVP; Amino acid Sequence of aMTD882) [compound 882]”: the “Relative Ratio (Fold) A” value under setting [1] is on record as 35.0 Fold. Besides, the “Relative Ratio (Fold) B” value under setting [2] worked out at 23.4 Fold. The “Relative Ratio (Fold) C” value under setting [3] is recorded as 11.8 Fold.
Turning to “883 (LAIVPAAIAALP; Amino acid Sequence of aMTD883) [compound 883]”, the “Relative Ratio (Fold) A” value under setting [4] was determined as 3.0 Fold. Moreover, the “Relative Ratio (Fold) C” value under setting [5] is on record as 1.0 Fold. For the same substance, under setting [6], the “Relative Ratio (Fold) B” value amounted to 2.0 Fold.
Consider “885 (LVAIAPAVAVLP; Amino acid Sequence of aMTD885) [compound 885]”, for which the “Relative Ratio (Fold) A” value under setting [1] is 28.3 Fold. The “Relative Ratio (Fold) B” value under setting [2] turned out to be 19.0 Fold. Under setting [3], the “Relative Ratio (Fold) C” value was 9.6 Fold.
Turning to “887 (VLAVAPAVAVLP; Amino acid Sequence of aMTD887) [compound 887]”, the “Relative Ratio (Fold) A” value under setting [1] amounted to 7.7 Fold. In addition, under setting [2], the “Relative Ratio (Fold) B” value amounted to 5.1 Fold. Besides, the “Relative Ratio (Fold) C” value under setting [3] was 2.6 Fold.
“888 (ILAVVAIPAAAP; Amino acid Sequence of aMTD888) [compound 888]”: the “Relative Ratio (Fold) A” value under setting [1] worked out at 71.0 Fold. Further, under setting [2], the “Relative Ratio (Fold) B” value was found to be 47.5 Fold. Moreover, the “Relative Ratio (Fold) C” value under setting [3] is on record as 24.0 Fold.
As to “889 (ILVAAAPIAALP; Amino acid Sequence of aMTD889) [compound 889]”, under setting [1], the “Relative Ratio (Fold) A” value was determined as 30.3 Fold. The “Relative Ratio (Fold) B” value under setting [2] amounted to 20.3 Fold. In addition, under setting [3], the “Relative Ratio (Fold) C” value amounted to 10.3 Fold.
The corresponding values for “891 (ILAVAAIPAALP; Amino acid Sequence of aMTD891) [compound 891]” are 44.7 Fold, 29.9 Fold and 15.1 Fold.
In the case of “893 (VIAIPAILAAAP; Amino acid Sequence of aMTD893) [compound 893]”, the “Relative Ratio (Fold) A” value under setting [4] is on record as 7.0 Fold. In addition, the “Relative Ratio (Fold) C” value under setting [5] was found to be 2.4 Fold. Further, the “Relative Ratio (Fold) B” value under setting [6] turned out to be 4.7 Fold.
As to “895 (AIIIVVPAIAAP; Amino acid Sequence of aMTD895) [compound 895]”, the “Relative Ratio (Fold) A” value under setting [1] was determined as 60.8 Fold. Besides, the “Relative Ratio (Fold) B” value under setting [2] came out at 40.7 Fold. Under setting [3], the “Relative Ratio (Fold) C” value stood at 20.6 Fold.
For the substance “896 (AILIVVAPIAAP; Amino acid Sequence of aMTD896) [compound 896]”, under setting [1], the “Relative Ratio (Fold) A” value was 57.5 Fold. In addition, the “Relative Ratio (Fold) B” value under setting [2] was found to be 38.5 Fold. The “Relative Ratio (Fold) C” value under setting [3] is 19.4 Fold.
For “897 (AVIVPVAIIAAP; Amino acid Sequence of aMTD897) [compound 897]”, the “Relative Ratio (Fold) A” value reads like this: under setting [1], 11.2 Fold; under setting [4], 11.2 Fold. Also, the “Relative Ratio (Fold) B” value came out at 7.5 Fold under setting [2] and 7.5 Fold under setting [6]. In addition, the “Relative Ratio (Fold) C” value reads like this: under setting [3], 3.8 Fold; under setting [5], 3.8 Fold.
Regarding “899 (AVVIALPAVVAP; Amino acid Sequence of aMTD899) [compound 899]”, the “Relative Ratio (Fold) A” value runs as follows: under setting [1], 164.2 Fold; under setting [7], 164.2 Fold. The “Relative Ratio (Fold) B” value stood at 109.9 Fold under setting [2] and 109.9 Fold (relative cell-permeability of aMTD vs reference CPP B: MTM12). In addition, the “Relative Ratio (Fold) C” value is recorded as 55.5 Fold under setting [3] and 55.5 Fold (relative cell-permeability of aMTD vs reference CPP C: MTD85).
Regarding “900 (ALVAVIAPVVAP; Amino acid Sequence of aMTD900) [compound 900]”, the “Relative Ratio (Fold) A” value under setting [1] is on record as 34.3 Fold. Also, the “Relative Ratio (Fold) B” value under setting [2] came to 22.9 Fold. For the same substance, under setting [3], the “Relative Ratio (Fold) C” value was found to be 11.6 Fold.
With “901 (ALVAVLPAVAVP; Amino acid Sequence of aMTD901) [compound 901]”, the “Relative Ratio (Fold) A” value under setting [1] turned out to be 7.7 Fold. Further, the “Relative Ratio (Fold) B” value under setting [2] came to 5.1 Fold. Under setting [3], the “Relative Ratio (Fold) C” value was determined as 2.6 Fold.
For “902 (ALVAPLLAVAVP; Amino acid Sequence of aMTD902) [compound 902]”, the “Relative Ratio (Fold) A” value under setting [1] is recorded as 7.6 Fold. Moreover, the “Relative Ratio (Fold) B” value under setting [2] is reported as 5.1 Fold. Besides, the “Relative Ratio (Fold) C” value under setting [3] is 2.6 Fold.
Consider “904 (AVLAVVAPVVAP; Amino acid Sequence of aMTD904) [compound 904]”, for which the “Relative Ratio (Fold) A” value under setting [1] amounted to 106.7 Fold and the “Relative Ratio (Fold) A” value under setting [7] is given as 105.7 Fold. The “Relative Ratio (Fold) B” value under setting [2] was 70.8 Fold. Further, the “Relative Ratio (Fold) C” value under setting [3] is on record as 35.8 Fold.
Regarding “905 (AVIAVAPLVVAP; Amino acid Sequence of aMTD905) [compound 905]”, the “Relative Ratio (Fold) A” value under setting [1] is reported as 44.0 Fold. The “Relative Ratio (Fold) B” value under setting [2] stood at 29.5 Fold. The “Relative Ratio (Fold) C” value under setting [3] stood at 14.9 Fold.
Take “906 (AVIALAPVVVAP; Amino acid Sequence of aMTD906) [compound 906]”: the “Relative Ratio (Fold) A” value under setting [4] was determined as 6.8 Fold. The “Relative Ratio (Fold) C” value under setting [5] was 2.3 Fold. The “Relative Ratio (Fold) B” value under setting [6] is reported as 4.6 Fold.
On to “910 (VAALLPAVVVAP; Amino acid Sequence of aMTD910) [compound 910]”, for which, under setting [1], the “Relative Ratio (Fold) A” value came to 149.5 Fold. For the same substance, under setting [2], the “Relative Ratio (Fold) B” value is recorded as 99.4 Fold. For the same substance, the “Relative Ratio (Fold) C” value under setting [3] was determined as 50.2 Fold.
